Patent US20240123022A1, “A STABLE ANTI-ANGIOGENIC AND ANTI-INFLAMMATORY PHARMACEUTICAL FORMULATION AND PHARMACEUTICAL COMBINATION FOR TREATMENT AND PREVENTION OF PSORIASIS” (priority 2021, published 2024)
Read-outs that look alike come from different tables or passages of the source.

Tests used:
human plasma proteins [1] = test system: human plasma proteins
Description: (§1) Test item at concentration of about 100 μg/ml was incubated with human plasma at 37° C. in water bath for about 1 hour. About 500 μL of test solution was transferred to ultrafiltration devices and centrifuged for about 15 minutes at about 13000 rpm and at 37° C. and analyzed using HPLC method.

human plasma proteins [2] = assay: in vitro
Description: as §1

HaCaT cell lines = assay: Cell cycle assay (Sub-G0/G1, pro-apoptotic effect); assay type: cell-based, human; settings: 48 h, vs untreated
Text: HaCaT cell lines were used as test system since it is widely used for studying anti-psoriatic effects. Curcumin dissolved in DMSO was taken as positive control for validation purpose. Apoptotic effect on HaCaT cell lines was detected by flow cytometry analysis.

[3] = test system: P-VEGFR-2, VEGFR-2, NRP-1, Akt, p-NRP1, P-Akt, ERK1/2, P-ERK1/2, p-38, P-p-38; assay: Biomarker estimation by western blotting; assay type: cell-based; settings: 500 and 1000 μg/ml, western blot
Text: Targets screened are as follows: P-VEGFR-1, P-VEGFR-2, P-VEGFR-3, VEGFR-1, VEGFR-2, VEGFR-3, NRP-1, MPO, Akt, PAkt, ERK1/2, P-ERK1/2, MAPK, p-38, P-p-38, p-NRP1 and GAPDH.

[4] = Stability of IS217 1% cream, long term 30° C. ± 2° C./65% RH; assay type: physicochemical; settings: 24 months at room temperature
Description: The purpose of stability testing is to provide evidence on how the quality of a drug product varies with time under the influence of a variety of environmental factors such as temperature, humidity, etc. and to establish a re-test period for the drug substance or a shelf life for the drug product and recommended storage conditions. The study was conducted according to the WHO and schedule-Y guidelines.
The drug product was manufactured by Issar Pharma. Three batches were manufactured at pilot scale level by the same synthetic route as, and using a method of manufacture and procedure that simulates the final process to be used for, production batches. The overall quality of the batches of drug product placed on these stability studies will be representative of the quality of the material to be made on a production scale.
A soft squeezable plastic tube will be used as primary packing material. The tube is a cylindrical, hollow piece with a rounded shape design.
This study has included testing of those attributes of the drug product that are susceptible to change during storage and are likely to influence quality, safety and/or efficacy. The testing was covered, as appropriate, the physical and chemical attributes. […]

[5] = test system: human keratinocytes (HaCaT) cells; assay: Annexin-V externalization (pro-apoptotic effect); assay type: cell-based; settings: 48 h, vs control
Description: Pro-apoptotic effect of IS217 was evaluated in human keratinocytes (HaCaT) cells by using the Annexin-V externalization. In this study, cells were plated and incubated for about 24 hours by using dulbecco's modified eagle's medium (DMEM) with about 10% fetal bovine serum (FBS) and cells were sera starved using about 0.1% FBS for about 3 hours. HaCaT cells were treated with IS217 at about 0 hours and about 24 hours in concentration range of from about 100 μg/ml to about 5000 μg/ml and incubated for about 24 hours. Curcumin (1 μM-50 μM) was used as positive control. After about 48 hours of first treatment, cells were incubated with Annexin-V reagent and subsequently analyzed by flow cytometry (Guava technologies) for identification of cells population.

[6] = test system: Salmonella typhimurium tester strains; assay: Bacterial reverse mutation test; assay type: cell-based; settings: five tester strains, upto 1000 μg/plate, with and without metabolic activation
Text: 17.1: Bacterial Reverse Mutation Test in Salmonella typhimurium Tester Strains:
This was confirmed by in vivo studies which are mandatory for any drug, as a part of safety toxicological studies.

[7] = human, microsomes
Description: Metabolic stability assay was performed to determine in vitro half-life and intrinsic clearance of test item. […] Following centrifugation, the supernatant was analyzed on HPLC-UV.

[8] = test system: IMQ induced psoriasis model using Balb/c mice; assay type: in vivo
Description: The experimental procedure and doses and route of administration are same as IMQ model. Test item IS217 was administered subcutaneously to diseased animals at different dose levels of 0.15 mg/kg, 0.30 mg/kg, 0.60 mg/kg, 1.2 mg/kg, 2.4 mg/kg and 4.8 mg/kg.

For “H-FAKKFAKKFK-OH [IS217, H-Phe-Ala-Lys-Lys-Phe-Ala-Lys-Lys-Phe-Lys-OH]”, the “binding affinity to human plasma proteins” value (human plasma proteins [1]) was “moderate binding affinity”, the fraction unbound at 1 hour, 100 μg/ml (human plasma proteins [2]) was 0.466 and the fraction unbound at 1 hour, 100 μg/ml (human plasma proteins [2]; free fraction) was 0.466 ± 0.03. For the same substance, the “increase in pro-apoptotic cells (Sub-G0/G1 population)” value (“increase in pro-apoptotic cells” below) (HaCaT cell lines; 100 μg/mL) was 1.2 fold, the “increase in pro-apoptotic cells” value (HaCaT cell lines; 500 μg/mL) was 5.0 fold and the “increase in pro-apoptotic cells” value (HaCaT cell lines; 1000 μg/mL) was 6.8 fold. For the same substance, the “increase in pro-apoptotic cells” value (HaCaT cell lines; 5000 μg/mL) was 1.1 fold, the “protein levels of P-VEGFR-2, VEGFR-2, NRP-1, Akt, p-NRP1, P-Akt, ERK1/2, P-ERK1/2, p-38, P-p-38” value [3] was “downregulated” and the “stability of drug product (1% cream)” value [4] was “stable”. For the same substance, the “Shelf life of IS217 API” value was “about 2 years”, the “appearance of reconstituted solution” value (0.9% sodium chloride) was “clear and colourless” and the “Dissolution of the lyophilized powder completed in” value (reconstitution with 0.9% sodium chloride) was “less than 2 minutes”. For the same substance, the “increase in necrotic cells” value ([5]; 100 μg/ml) was 3.6 fold, the “increase in late apoptotic cells” value ([5]; 1000 μg/ml) was 1.7 fold and the “increase in late apoptotic cells” value ([5]; 2000 μg/ml) was 3.4 fold. For the same substance, the “increase in necrotic cells” value ([5]; 2000 μg/ml) was 1.4 fold, the “increase in late apoptotic cells” value ([5]; 5000 μg/ml) was 5.6 fold and the “increase in necrotic cells” value ([5]; 5000 μg/ml) was 3.1 fold. For the same substance, the “increase in early apoptotic cells” value ([5]; HaCaT, 100-5000 μg/ml) was “no increase”, the “mutagenicity (gene mutations at histidine locus)” value [6] was “non mutagenic” and the metabolic stability [7] was “moderately metabolically stable”. The “inhibition of ear thickness” value ([8]; 0.3 mg/kg SC) was 36.34%, the “psoriatic score PASI and ear punch biopsy” value ([8]; IS217 SC 0.15-4.8 mg/kg q.d., 8 days) was “lowering of” and the TNF-α level ([8]; SC 0.15-4.8 mg/kg) was “no trend”. For the same substance, the “ear thickness (life phase), punch biopsy, cumulative psoriatic scoring and spleen weight” value ([8]; dose level of 0.3 mg/kg SC) was “maximum effect” and the “Ear homogenate TNF-α, IL-23, MPO” value ([8]; p < 0.01) was “MPO reduction”.
